# Reference: patent US4500526A, “Cephalosporin derivatives” (Bristol-Myers Company, priority 1983, dated 1985)
# Like-named read-outs stand apart in the source and are kept apart here.
# Key:
# [1] = system: M. morganii (1 strain), Ent. cloacae (2 strains) and Ser. marcescens (2 strains); experiment: MIC, two-fold serial agar dilution, group (G-)-II; format: cell-based; conditions: read-out: Geometric Mean of MIC
# Method: (§1) In the primary evaluation of the compounds of this invention, the Minimum Inhibitory Concentrations (MIC's) of the compounds were determined by the two-fold serial agar dilution method in Mueller-Hinton agar against 32 strains of test organisms in six groups. The sample weights of the test compounds were adjusted according to the purity of each compound, so as to give a more accurate measure of the MIC's.
# (G-)II: M. morganii (1 strain), Ent. cloacae (2 strains) and Ser.
# [2] = system: Cephalothinresistant E. coli (3 strains) and Kl. pneumoniae (3 strains); experiment: MIC, two-fold serial agar dilution, group (G-)-Ib; format: cell-based; conditions: Escherichia coli, read-out: Geometric Mean of MIC
# Method: as §1
# (G-)Ib: Cephalothinresistant E. coli (3 strains) and Kl. pneumoniae (3
# [3] = system: Penicillinsensitive S. aureus (5 strains); experiment: MIC, two-fold serial agar dilution, group (G+)-Ia; format: cell-based; conditions: Staphylococcus aureus, read-out: Geometric Mean of MIC
# Method: as §1
# (G+)Ia: Penicillinsensitive S. aureus (5 strains)
# [4] = system: S. pneumoniae (5); experiment: In vitro activity against fastidious bacteria, two-fold serial agar dilution; format: cell-based; conditions: Streptococcus pneumoniae; GC agar; read-out: Geometric Mean of MIC
# Method: (§2) The in vitro activity of some of the preferred compounds against 30 strains of fastidious bacteria was determined by the two-fold serial agar dilution method in Gonococcus agar (GC agar), and the results are shown in Table 3.
# [5] = system: S. pyogenes (5 strains); experiment: as above; format: cell-based; conditions: Streptococcus pyogenes; GC agar; read-out: Geometric Mean of MIC
# Method: as §2
# [6] = system: H. influenzae (3) (ampicillin resistant); experiment: as above; format: cell-based; conditions: Haemophilus influenzae, read-out: Geometric Mean of MIC
# Method: as §2
# [7] = system: N. gonorrhoeae (5); experiment: as above; format: cell-based; conditions: Neisseria gonorrhoeae, read-out: Geometric Mean of MIC
# Method: as §2
# [8] = system: N. meningitidis (5); experiment: as above; format: cell-based; conditions: Neisseria meningitidis, read-out: Geometric Mean of MIC
# Method: as §2
# [9] = system: H. influenzae (7) (ampicillin sensitive); experiment: as above; format: cell-based; conditions: Haemophilus influenzae, GC agar, 7 strains, read-out: Geometric Mean of MIC
# Method: as §2
# [10] = system: Penicillinresistant S. aureus (5 strains); experiment: MIC, two-fold serial agar dilution, group (G+)-Ib; format: cell-based; conditions: Staphylococcus aureus, read-out: Geometric Mean of MIC
# Method: as §1
# (G+)Ib: Penicillinresistant S. aureus (5 strains)
# [11] = system: E. coli Juhl; experiment: Median protective dose in infected mice; format: in vivo; conditions: Escherichia coli, im, immediately after intraperitoneal challenge, read-out: PD50
# Method: (§3) The median protective dose (PD50) of some of the preferred compounds against various microorganisms was determined in mice by intramuscular administration of the test compound immediately after an intraperitoneal bacterial challenge.
# [12] = system: P. aeruginosa A9843; experiment: Median protective dose in infected mice; format: in vivo; conditions: Pseudomonas aeruginosa, im, immediately after intraperitoneal challenge, read-out: PD50
# Method: as §3
# [13] = system: S. aureus Smith; experiment: Median protective dose in infected mice; format: in vivo; conditions: Staphylococcus aureus, im, immediately after intraperitoneal challenge, read-out: PD50
# Method: as §3
# [14] = system: Ps. aeruginosa (6 strains); experiment: MIC, two-fold serial agar dilution, group (G-)-III; format: cell-based; conditions: Pseudomonas aeruginosa, read-out: Geometric Mean of MIC
# Method: as §1
# (G-)III: Ps. aeruginosa (6 strains)
# [15] = Mouse blood levels after single intramuscular injection; format: in vivo, mice; conditions: in vivo, im, 20 mg/kg
# Method: The absorption of some of the preferred compounds were determined in mice following a single intramuscular injection of the test compound (dissolved in 0.1M phosphate buffer; pH 7) at a dosage of 20 mg/kg. Blood samples were collected from the orbital sinuses into heparinized capillary tubes and assayed in Nutrient Agar (pH 6.6) using E. coli Ess-22-31 as the test organism. The blood levels at various time intervals, the half-life values (t1/2) and the areas under the curve (AUC) are shown in Table 2.
# [16] = system: Cephalothinsensitive E. coli (2 strains), Kl. pneumoniae (1 strain) and Pr. mirabilis (2 strains); experiment: MIC, two-fold serial agar dilution, group (G-)-Ia; format: cell-based; conditions: 5 strains, Mueller-Hinton agar, read-out: Geometric Mean of MIC
# Method: as §1
# (G-)Ia: Cephalothinsensitive E. coli (2 strains), Kl. pneumoniae (1
# strain) and Pr. mirabilis (2 strains)
# [17] = (G-)-II, 5 strains, Mueller-Hinton agar
# [18] = (G+)-Ia, 5 strains, Mueller-Hinton agar
# [19] = (G+)-Ib, 5 strains, Mueller-Hinton agar
# [20] = (G-)-III, 6 strains, Mueller-Hinton agar
Compound,"MIC [1, 17] [µg/mL]",MIC [2] [µg/mL],"MIC [3, 18] [µg/mL]","MIC [10, 19] [µg/mL]",ED50 [11] [mg/kg],ED50 [12] [mg/kg],ED50 [13] [mg/kg],AUC [15] [ng·h/mL],concentration at 10 min [15] [ng/mL],concentration at 20 min [15] [ng/mL],concentration at 0.5 h [15] [ng/mL],concentration at 40 min [15] [ng/mL],concentration at 50 min [15] [ng/mL],concentration at 1 h [15] [ng/mL],concentration at 1.5 h [15] [ng/mL],concentration at 2 h [15] [ng/mL],half-life [15] [min],MIC [16] [µg/mL],MIC [1] [µg/mL],"MIC [14, 20] [µg/mL]",further results
"Nc1nc(/C(=N/OC2(C(=O)O)CCC2)C(=O)NC2C(=O)N3C(C(=O)[O-])=C(C[n+]4ccc5scnc5c4)CS[C@H]23)cs1 (stereo partly drawn) [Ie, 7-[(Z)-2-(2-Aminothiazol-4-yl)-2-(1-carboxycyclobut-1-oxyimino)-acetamido]-3-{(5-thiazolo[4,5-c]pyridinio)methyl}-3-cephem-4-carboxylate]",0.34,0.5,2.2,4.4,0.08,1.8,3.1,7900,13000,12000,7500,4300,3000,2600,510,150,16,0.023,–,–,MIC [4]: 0.2 µg/mL; MIC [5]: 0.2 µg/mL; MIC [6]: 0.1 µg/mL; MIC [7]: 0.1 µg/mL; MIC [8]: 0.1 µg/mL; MIC [9]: 0.1 µg/mL; MIC [14]: 1.3 µg/mL
"CO/N=C(\C(=O)NC1C(=O)N2C(C(=O)[O-])=C(C[n+]3ccc4sc(NC(=O)OC)nc4c3)CS[C@H]12)c1csc(N)n1 (stereo partly drawn) [Is, 7-[(Z)-2-(2-Aminothiazol-4-yl)-2-methoxyiminoacetamido]-3-(2-methoxycarbonylamino-5-thiazolo[4,5-c]pyridinio)methyl-3-cephem-4-carboxylate]",–,0.69,0.46,0.8,0.018,10,1.2,13000,19000,18000,14000,6700,4600,4600,2200,1100,26,0.038,0.6,14,–
"CO/N=C(\C(=O)NC1C(=O)N2C(C(=O)[O-])=C(C[n+]3ccc4sc(NC(=O)N5CCCC5)nc4c3)CS[C@H]12)c1csc(N)n1 (stereo partly drawn) [It, 7-[(Z)-2-(2-Aminothiazol-4-yl)-2-methoxyiminoacetamido]-3-[2-(pyrrolidin-1-ylcarbonylamino)-5-thiazolo[4,5-c]pyridinio]methyl-3-cephem-4-carboxylate]",2.8,0.92,0.53,–,0.2,> 25,1.9,13000,19000,18000,11000,7800,6600,5400,2100,890,24,0.3,–,34,MIC [10]: 1.6 µg/mL
"CO/N=C(\C(=O)NC1C(=O)N2C(C(=O)[O-])=C(C[n+]3ccc4sc(N(C)C)nc4c3)CS[C@H]12)c1csc(N)n1 (stereo partly drawn) [Iu, 7-[(Z)-2-(2-Aminothiazol-4-yl)-2-methoxyiminoacetamido]-3-(2-dimethylamino-5-thiazolo[4,5-c]pyridinio)methyl-3-cephem-4-carboxylate]",–,0.11,0.46,0.8,0.013,4.6,0.48,9800,18000,13000,9600,5500,3400,2600,1000,340,19,0.012,0.23,6.3,–
"CO/N=C(\C(=O)NC1C(=O)N2C(C(=O)[O-])=C(C[n+]3ccc4sc(C(=O)O)nc4c3)CS[C@H]12)c1csc(N)n1 (stereo partly drawn) [Iv, 7-[(Z)-2-(2-Aminothiazol-4-yl)-2-methoxyiminoacetamido]-3-(2-carboxy-5-thiazolo[4,5-c]pyridinio)methyl-3-cephem-4-carboxylate]",0.69,1.2,–,3.1,0.024,21,2.6,10000,17000,16000,10000,5900,4300,3000,1200,< 200,19,0.014,–,5.7,MIC [3]: 1.6 µg/mL
"CO/N=C(\C(=O)NC1C(=O)N2C(C(=O)[O-])=C(C[n+]3ccc4sc(C=O)nc4c3)CSC12)c1csc(N)n1 (stereo not drawn) [Iw, 7-[(Z)-2-(2-Aminothiazol-4-yl)-2-methoxyiminoacetamido]-3-(2-formylthiazolo[4,5-c]pyridinio)methyl-3-cephem-4-carboxylate]",–,0.17,0.53,–,0.015,4.7,1.3,11000,20000,19000,8900,6600,3900,2000,1000,480,19,0.016,0.2,1.7,MIC [10]: 1.6 µg/mL
